Reference: PMC4906895, “Clonorchis sinensis omega-class glutathione transferases play major roles in the protection of the reproductive system during maturation and the response to oxidative stress” (Parasites & Vectors, 2016)
Where two headings read alike, the source gives them in different places.

Legend:
[1] = target: T1, Clonorchis sinensis omega-class glutathione transferase 2 (CsGSTo2) (Clonorchis sinensis, UniProt G7YE46); test: spectrophotometric GST activity of purified enzyme (specific activity); type: biochemical
T1 construct: gene CLF_105746; full-length recombinant (223 amino acids), His-tag removed; GenBank KX163089
T1 sequence (G7YE46 1-223): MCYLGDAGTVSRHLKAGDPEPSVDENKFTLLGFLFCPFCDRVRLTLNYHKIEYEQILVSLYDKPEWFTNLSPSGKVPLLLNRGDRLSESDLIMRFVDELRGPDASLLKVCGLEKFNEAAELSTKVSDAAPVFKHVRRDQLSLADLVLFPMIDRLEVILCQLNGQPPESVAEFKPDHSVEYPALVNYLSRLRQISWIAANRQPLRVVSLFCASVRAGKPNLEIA

[2] = target: T2, Clonorchis sinensis omega-class glutathione transferase 1 (CsGSTo1) (Clonorchis sinensis, UniProt A0A192IBN1); test: as above; type: biochemical
T2 construct: full-length recombinant (246 amino acids), His-tag removed; GenBank KX163088
T2 sequence (A0A192IBN1 1-246): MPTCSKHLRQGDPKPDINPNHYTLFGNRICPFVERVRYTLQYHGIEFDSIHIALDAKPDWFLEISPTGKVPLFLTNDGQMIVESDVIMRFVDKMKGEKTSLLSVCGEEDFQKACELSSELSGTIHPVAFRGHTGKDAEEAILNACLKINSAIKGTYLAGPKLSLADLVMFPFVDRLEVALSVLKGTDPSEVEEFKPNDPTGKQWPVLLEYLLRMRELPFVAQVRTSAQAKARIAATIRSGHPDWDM

[3] = target: T2, Clonorchis sinensis omega-class glutathione transferase 1 (CsGSTo1); test: biochemical; design: DHAR activity inhibition of recombinant CsGSTo, absorbance at 265 nm; Ki from Lineweaver-Burk plots
Procedure: (§1) We determined the inhibition mode of CsGSTos employing SHG and the anthelminthic drug praziquantel (PZQ; Shinpoong, Seoul, Korea). rCsGSTos (each 100 ng) were preincubated with Dulbecco’s PBS supplemented with 10–1,000 μM PZQ or 10–500 nM SHG for 2 min, after which the reaction was initiated by adding 1 mM GSH and 1 mM DHA. The increase in absorbance of the resulting […] was recorded spectrophotometrically at 265 nm. A set of reactions under identical conditions was done for each inhibitor concentration and for controls. To examine the inhibition mode of the specific active sites, rCsGSTos were preincubated with saturating concentrations of GSH (5 mM) for 2 min before conjugating reaction with varying concentrations of DHA (0.01–5 mM). […] All measurements were independently done in triplicate. Data were analyzed by Lineweaver-Burk plots. GST activity was spectrophotometrically determined employing a panel of substrates (Sigma-Aldrich); 1-chloro-2,4-dinitrobenzene (CDNB; pH 6.5, 340 nm), 1,2-dichloro-4-nitrobenzene (DCNB; pH 7.5, 345 nm), [compound left out] (4-NBC; pH 6.5, 310 nm), [compound left out] acetate (4-NPA; pH 7.0, 400 nm), 4-hydroxy nonenal (pH 7.5, 340 nm), cumene hydroperoxide (CHP; pH 6.5, 340 nm) and ethacrynic acid (pH 7.5, 340 nm). The reactions were recorded for 5 min at 25 °C in 100 mM potassium phosphate buffer (pH 7.2, 200 μl) containing each 4 mM substrate and 4 mM GSH. The formation of ascorbate by the glutathione-dependent DHAR was detected in potassium phosphate buffer (50 mM, pH 7.2) supplemented with 1 mM GSH and 0.25 mM dehydroascorbate (DHA) at 265 nm. Thioltransferase activity was assayed using hydroxylethyl disulfide (HEDS, 2 mM) in potassium phosphate buffer (50 mM, pH 7.2) containing 0.2 mM NADPH, 0.5 mM GSH and 0.5 units of glutathione reductase for 2 min at 340 nm. One unit of enzyme activity was defined as the amount of enzyme that catalyzed the formation of one micromole of product per min in the presence of respective substrates. Vmax and appKm were determined by one site saturation assays in ranges of 0.01–5 mM DHA with 5 mM GSH (saturating concentration). We also used variable concentrations of GSH ranging from 0.01–5.0 mM with 5 mM DHA (saturating concentration). Enzyme activity was monitored by changes of absorbance and was converted to specific activity using a molar extinction coefficient (Δε = 5.3). Non-enzymatic reaction was concomitantly monitored and subtracted from the entire reaction rate. All enzyme assays were independently performed in triplicate at 25 °C. Data were analyzed by best fit algorithm in SigmaPlot10.0.1 (Systat, San Diego, CA, USA). […] SHG might act via nucleophilic attack of the active site cysteine on the cysteinyl sulfur of the SHG to form a mixed disulfide with the DHA/GSH moiety with high affinity. […] PZQ might bind to a site other than the active- and glutathione-binding sites and act allosterically. We determined IC50 values of rCsGSTos against SHG and PZQ at a saturating concentration (IC50SC).

[4] = target: T1, Clonorchis sinensis omega-class glutathione transferase 2 (CsGSTo2); test: biochemical; design: DHAR activity inhibition of recombinant CsGSTo, absorbance at 265 nm; Ki from Lineweaver-Burk plots; settings: for Ki: non-competitive
Procedure: as §1

[5] = substrate: O=C1O[C@H]([C@@H](O)CO)C(=O)C1=O; test: steady-state DHAR kinetics of purified enzyme (apparent Km); type: biochemical, Clonorchis sinensis; settings: GSH

Molecule: O=[N+]([O-])c1ccc(CCl)cc1 [4-NBC, 4-nitrobenzyl chloride]
- Specific activity (μmol/min/mg) / rGSTo2 [1]: 0.91 ± 0.24 µmol/min/mg
- Specific activity (μmol/min/mg) / rGSTo1 [2]: 1.42 ± 0.09 µmol/min/mg

Molecule: O=C(C1CCCCC1)N1CC(=O)N2CCc3ccccc3C2C1 (centres unmarked) [PZQ, praziquantel]
- IC50 [3]: 108.4 ± 0.8 µM
- Ki ([3]; ligand binding site (varied GSH), non-competitive): 46.8 µM
- Ki ([3]; specific active site (varied DHA), non-competitive): 44.1 µM
- IC50 [4]: 116.8 ± 0.7 µM
- Ki ([4]; ligand binding site (varied GSH)): 42.8 µM
- Ki ([4]; specific active site (varied DHA)): 38.2 µM

Molecule: CCCCCCSC[C@H](NC(=O)CC[C@H](N)C(=O)O)C(=O)NCC(=O)O [SHG, S-hexylglutathione]
- Ki [3]: 0.00063 µM

B1: Clonorchis sinensis omega-class glutathione transferase 2 (CsGSTo2) (Clonorchis sinensis) (protein)
chain: MCYLGDAGTVSRHLKAGDPEPSVDENKFTLLGFLFCPFCDRVRLTLNYHKIEYEQILVSLYDKPEWFTNLSPSGKVPLLLNRGDRLSESDLIMRFVDELRGPDASLLKVCGLEKFNEAAELSTKVSDAAPVFKHVRRDQLSLADLVLFPMIDRLEVILCQLNGQPPESVAEFKPDHSVEYPALVNYLSRLRQISWIAANRQPLRVVSLFCASVRAGKPNLEIA
notes: full-length recombinant (223 amino acids), His-tag removed; GenBank KX163089
- Km [5]: 170 ± 20 µM
- Vmax [5]: 1.08 ± 0.02 µmol/min/mg
- kcat [5]: 0.43 s⁻¹
- kcat/Km [5]: 2530 M⁻¹ s⁻¹

B2: Clonorchis sinensis omega-class glutathione transferase 1 (CsGSTo1) (Clonorchis sinensis) (protein)
chain: MPTCSKHLRQGDPKPDINPNHYTLFGNRICPFVERVRYTLQYHGIEFDSIHIALDAKPDWFLEISPTGKVPLFLTNDGQMIVESDVIMRFVDKMKGEKTSLLSVCGEEDFQKACELSSELSGTIHPVAFRGHTGKDAEEAILNACLKINSAIKGTYLAGPKLSLADLVMFPFVDRLEVALSVLKGTDPSEVEEFKPNDPTGKQWPVLLEYLLRMRELPFVAQVRTSAQAKARIAATIRSGHPDWDM
notes: full-length recombinant (246 amino acids), His-tag removed; GenBank KX163088
- Km [5]: 210 ± 20 µM
- Vmax [5]: 1.16 ± 0.02 µmol/min/mg
- kcat [5]: 0.48 s⁻¹
- kcat/Km [5]: 2290 M⁻¹ s⁻¹
